ChEMBL document CHEMBL4818998, “Melatonin derivatives combat with inflammation-related cancer by targeting the Main Culprit STAT3” (Eur J Med Chem, 2021)
The source made the active and inactive calls. The rule behind the calls is not given here.

How the values were obtained:
[1] = test system: MGC-803; assay: Antiproliferative activity against human MGC-803 cells assessed as decrease in cell population at S-phase at 2 to 16 uM measured after 24 hrs by EdU incorporation based fluorescence microscopic analysis; format: functional; details: dose 2-16 µM
[2] = test system: RAW264.7; assay: Anti-inflammatory activity against mouse RAW264.7 cells assessed as decrease in LPS-induced TNF-alpha secretion measured after 24 hrs by ELISA; format: functional, cell-based; details: dose 5-20 µM
[3] = test system: HCT-116; assay: Induction of ROS generation in human HCT-116 cells at 2.5 to 15 uM measured after 36 hrs by DCFH-DA staining based fluorescence microscopic analysis; format: functional, cell-based; details: dose 2.5-15 µM
[4] = molecular target: Signal transducer and activator of transcription 3 (Homo sapiens) (UniProt P40763); assay: Inhibition of STAT3 in human HCT-116 cells assessed as decrease in Bcl-2 expression at 2.5 to 10 uM measured after 48 hrs by western blot assay; format: cell-based; details: dose 2.5-10 µM
[5] = Cytotoxicity against human HCT-116 cells assessed as cell viability at <36 uM measured after 24 hrs by CCK8 assay; format: cell-based; details: read-out: Activity
[6] = molecular target: Signal transducer and activator of transcription 3 (Homo sapiens) (UniProt P40763); assay: Inhibition of STAT3 in human HCT-116 cells assessed as inhibition of nuclear translocation of STAT3 at 10 uM measured after 3 hrs by Hoechst/fluorochrome-conjugated antibody staining based confocal laser microscopy; format: cell-based
[7] = molecular target: Signal transducer and activator of transcription 3 (Homo sapiens) (UniProt P40763); assay: Inhibition of STAT3 in human HCT-116 cells assessed as decrease in STAT3 phosphorylation at 2.5 to 10 uM measured after 48 hrs by western blot assay; format: cell-based; details: dose 2.5-10 µM
[8] = test system: HCT-116; assay: Induction of apoptosis in human HCT-116 cells assessed as early apoptotic cells at 10 uM measured after 48 hrs by Annexin V-FITC/PI staining based flow cytometry (reference value: 2.14%); format: functional
[9] = test system: MGC-803; assay: Downregulation of STAT3 expression in human MGC-803 cells at 4 to 16 uM measured after 48 hrs by western blot assay; format: functional, cell-based; details: dose 4-16 µM
[10] = test system: RAW264.7; assay: Anti-inflammatory activity against mouse RAW264.7 cells assessed as decrease in LPS-induced IL-6 secretion measured after 24 hrs by ELISA; format: functional, cell-based; details: dose 5-20 µM
[11] = test system: HCT-116; assay: Induction of apoptosis in human HCT-116 cells assessed as increase in apoptotic cells with twinkling cell nuclei at 1.25 to 10 uM measured after 48 hrs by Hoechst 33342 staining based light blue fluorescence analysis; format: functional; details: dose 1.25-10 µM
[12] = Observed AUC (0 to infinity) in Sprague-Dawley rat at 100 mg/kg, ig measured for 24 hrs by LC-MS analysis; format: ADME, organism-based; design: route intragastric, time 24 hrs, dose 100 mg/kg; details: in vivo, po
[13] = test system: HCT-116; assay: Induction of apoptosis in human HCT-116 cells assessed as viable cells at 5 uM measured after 48 hrs by Annexin V-FITC/PI staining based flow cytometry (reference value: 94.9%); format: functional; details: read-out: Activity
[14] = test system: HCT-116; assay: Induction of apoptosis in human HCT-116 cells assessed as necrotic cells at 20 uM measured after 48 hrs by Annexin V-FITC/PI staining based flow cytometry (reference value: 1.5%); format: functional
[15] = test system: HCT-116; assay: Induction of apoptosis in human HCT-116 cells assessed as […] of cleaved caspase-3 expression at 2.5 to 10 uM measured after 48 hrs by western blot assay; format: functional, cell-based; details: dose 2.5-10 µM
[16] = test system: MGC-803; assay: Cytotoxicity against human MGC-803 cells assessed as reduction in cell viability at <=10 uM measured after 48 hrs by CCK8 assay; format: cell-based; details: mgc-803, 48 h
[17] = test system: HGC-27; assay: Antiproliferative activity against human HGC-27 cells assessed as inhibition of cell proliferation measured after 72 hrs by MTT assay; format: functional, cell-based; details: HGC-27, 72 h
[18] = test system: HCT-116; assay: Antimetastatic activity against human HCT-116 cells assessed as inhibition of cell invasion measured after 36 hrs by transwell assay; format: functional, cell-based; details: dose 2.5-15 µM
[19] = test system: HCT-116; assay: Induction of apoptosis in human HCT-116 cells assessed as late apoptotic cells at 5 uM measured after 48 hrs by Annexin V-FITC/PI staining based flow cytometry (reference value: 1.42%); format: functional
[20] = test system: MGC-803; assay: Induction of cell cycle arrest in human MGC-803 cells at 2.5 to 20 uM measured after 48 hrs by propidium iodide staining based flow cytometry analysis; format: functional; details: dose 2.5-20 µM
[21] = test system: HCT-116; assay: Induction of apoptosis in human HCT-116 cells assessed as formation of apoptotic bodies at 2.5 to 15 uM measured after 48 hrs by Giemsa staining method; format: functional, cell-based; details: dose 2.5-15 µM
[22] = molecular target: Signal transducer and activator of transcription 3 (Homo sapiens) (UniProt P40763); assay: Inhibition of STAT3 in human MGC-803 cells assessed as inhibition of nuclear translocation of STAT3 at 10 uM measured after 3 hrs by Hoechst/fluorochrome-conjugated antibody staining based confocal laser microscopy; format: cell-based
[23] = test system: HCT-116; assay: Induction of apoptosis in human HCT-116 cells assessed as viable cells at 10 uM measured after 48 hrs by Annexin V-FITC/PI staining based flow cytometry (reference value: 94.9%); format: functional; details: read-out: Activity
[24] = test system: HCT-116; assay: Induction of apoptosis in human HCT-116 cells assessed as plasmatorrhexis at 2.5 to 15 uM measured after 48 hrs by Giemsa staining method; format: functional, cell-based; details: dose 2.5-15 µM
[25] = test system: MGC-803; assay: Antimetastatic activity against human MGC-803 cells assessed as inhibition of cell migration measured after 24 hrs by transwell assay; format: functional, cell-based; details: dose 2.5-15 µM
[26] = AUC (0 to t) in Sprague-Dawley rat at 100 mg/kg, ig measured for 24 hrs by LC-MS analysis; format: ADME, organism-based; design: time 24 hrs, dose 100 mg/kg; details: in vivo, po
[27] = test system: HCT-116; assay: Induction of apoptosis in human HCT-116 cells assessed as upregulation of Bax expression at 2.5 to 10 uM measured after 48 hrs by western blot assay; format: functional, cell-based; details: dose 2.5-10 µM
[28] = molecular target: Signal transducer and activator of transcription 3 (Homo sapiens) (UniProt P40763); assay: Inhibition of STAT3 in human MGC-803 cells assessed as decrease in STAT3 phosphorylation at 4 to 16 uM measured after 48 hrs by western blot assay; format: cell-based; details: dose 4-16 µM
[29] = Half life in Sprague-Dawley rat at 100 mg/kg, ig measured for 24 hrs by LC-MS analysis; format: ADME, organism-based; details: in vivo, po
[30] = Toxicity in Kunming mouse assessed as animal activity at 1000 mg/kg, ig measured for 14 days; format: organism-based; details: in vivo, po, 336 h, time 14 day
[31] = test system: MGC-803; assay: Inhibition of clonogenicity in human MGC-803 cells assessed as reduction in colony formation measured after 6 days by crystal violet staining based analysis; format: functional, cell-based; details: dose 2-16 µM, time 6.0 day
[32] = Cmax in Sprague-Dawley rat at 100 mg/kg, ig measured for 24 hrs by LC-MS analysis; format: ADME, organism-based; design: route intragastric, time 24 hrs, dose 100 mg/kg; details: in vivo, po
[33] = test system: SGC-7901; assay: Antiproliferative activity against human SGC-7901 cells assessed as inhibition of cell proliferation measured after 72 hrs by MTT assay; format: functional, cell-based; details: SGC-7901, 72 h
[34] = test system: HCT-116; assay: Inhibition of clonogenicity in human HCT-116 cells assessed as reduction in colony formation measured after 9 days by crystal violet staining based analysis; format: functional, cell-based; details: dose 1.25-10 µM, time 9.0 day
[35] = test system: AGS; assay: Antiproliferative activity against human AGS cells assessed as inhibition of cell proliferation measured after 72 hrs by MTT assay; format: functional, cell-based
[36] = test system: MGC-803; assay: Antiproliferative activity against human MGC-803 cells assessed as inhibition of cell proliferation measured after 72 hrs by MTT assay; format: functional, cell-based; details: MGC-803, 72 h
[37] = test system: HCT-116; assay: Induction of apoptosis in human HCT-116 cells assessed as viable cells at 20 uM measured after 48 hrs by Annexin V-FITC/PI staining based flow cytometry (reference value: 94.9%); format: functional; details: read-out: Activity

Chain of Signal transducer and activator of transcription 3 (Homo sapiens) (P40763 whole entry): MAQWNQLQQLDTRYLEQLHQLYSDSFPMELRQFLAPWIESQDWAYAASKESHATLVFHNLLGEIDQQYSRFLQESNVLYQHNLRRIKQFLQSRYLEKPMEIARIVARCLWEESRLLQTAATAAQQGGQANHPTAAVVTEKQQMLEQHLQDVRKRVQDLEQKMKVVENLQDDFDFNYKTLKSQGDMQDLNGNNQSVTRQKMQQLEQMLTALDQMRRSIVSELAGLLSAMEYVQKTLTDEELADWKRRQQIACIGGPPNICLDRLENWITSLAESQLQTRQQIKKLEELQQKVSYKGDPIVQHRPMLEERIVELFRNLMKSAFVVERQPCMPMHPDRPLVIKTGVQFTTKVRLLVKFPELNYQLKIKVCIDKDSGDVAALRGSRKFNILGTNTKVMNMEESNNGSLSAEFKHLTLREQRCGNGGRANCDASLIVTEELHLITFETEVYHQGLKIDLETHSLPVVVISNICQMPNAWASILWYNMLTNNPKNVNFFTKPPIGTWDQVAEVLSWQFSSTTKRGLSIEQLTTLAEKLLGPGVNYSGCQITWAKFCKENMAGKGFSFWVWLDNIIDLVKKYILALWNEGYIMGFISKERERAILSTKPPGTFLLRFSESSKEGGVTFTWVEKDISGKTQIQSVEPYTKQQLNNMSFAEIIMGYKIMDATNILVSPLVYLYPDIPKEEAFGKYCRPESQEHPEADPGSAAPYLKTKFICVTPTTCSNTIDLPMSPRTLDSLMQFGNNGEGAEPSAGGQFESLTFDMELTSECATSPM

For `Cc1c(Cl)cccc1Nc1ccccc1C(=O)NCCc1c[nH]c2ccccc12`, the Activity [1] was “Active”, the Activity [2] was “Dose-Dependent Effect” and the Activity [3] was “Active”. The inhibition [4] was “Active”, the viability at 24 h [5] was at least 80% and the inhibition [6] was “Active”. For the same compound, the inhibition [7] was “Active”, the Activity [8] was 33% and the inhibition [9] was “Active”. For the same compound, the Activity [10] was “Dose-Dependent Effect”, the Activity [11] was “Active” and the AUC(0-inf) [12] was 1930 ng·h/mL. The viability at 5 µM [13] was 87.8%, the Activity [14] was 2.62% and the Activity [15] was “Active”. For the same compound, the Activity [16] was “Non-Toxic”, the IC50 [17] was 15.5 µM and the Activity [18] was “Dose-Dependent Effect”. The Activity [19] was 3.94%, the Activity [20] was “inactive” and the Activity [21] was “Active”. The inhibition [22] was “Active”, the viability at 10 µM [23] was 58.5% and the Activity [24] was “Active”. The Activity [25] was “Dose-Dependent Effect”, the AUC(0-t) at 24 h [26] was 1670 ng·h/mL and the Activity [27] was “Active”. For the same compound, the inhibition [28] was “Active”, the half-life [29] was 7.58 h and the Activity [30] was “Non-Toxic”. The inhibition [31] was “Dose-Dependent Effect”, the Cmax [32] was 150 ng/mL and the IC50 [33] was 15.5 µM. For the same compound, the inhibition [34] was “Dose-Dependent Effect”, the IC50 [35] was 9.12 µM and the IC50 [36] was 9.96 µM. The viability at 20 µM [37] was 45.9%.
